The results in this text go back to patent publication US20100056524A1, “Compound” (priority 2008, published 2010).

Structures can show the parent of a compound that is named as a salt.

The target in the assay is T1, TBK1 (Homo sapiens, UniProt Q9UHD2).
T1 construct: All protein kinases were of human origin and encoded full length proteins, unless indicated otherwise; His6; made in house; host or cells: insect Sf21 cells
T1 sequence (Q9UHD2 1-729): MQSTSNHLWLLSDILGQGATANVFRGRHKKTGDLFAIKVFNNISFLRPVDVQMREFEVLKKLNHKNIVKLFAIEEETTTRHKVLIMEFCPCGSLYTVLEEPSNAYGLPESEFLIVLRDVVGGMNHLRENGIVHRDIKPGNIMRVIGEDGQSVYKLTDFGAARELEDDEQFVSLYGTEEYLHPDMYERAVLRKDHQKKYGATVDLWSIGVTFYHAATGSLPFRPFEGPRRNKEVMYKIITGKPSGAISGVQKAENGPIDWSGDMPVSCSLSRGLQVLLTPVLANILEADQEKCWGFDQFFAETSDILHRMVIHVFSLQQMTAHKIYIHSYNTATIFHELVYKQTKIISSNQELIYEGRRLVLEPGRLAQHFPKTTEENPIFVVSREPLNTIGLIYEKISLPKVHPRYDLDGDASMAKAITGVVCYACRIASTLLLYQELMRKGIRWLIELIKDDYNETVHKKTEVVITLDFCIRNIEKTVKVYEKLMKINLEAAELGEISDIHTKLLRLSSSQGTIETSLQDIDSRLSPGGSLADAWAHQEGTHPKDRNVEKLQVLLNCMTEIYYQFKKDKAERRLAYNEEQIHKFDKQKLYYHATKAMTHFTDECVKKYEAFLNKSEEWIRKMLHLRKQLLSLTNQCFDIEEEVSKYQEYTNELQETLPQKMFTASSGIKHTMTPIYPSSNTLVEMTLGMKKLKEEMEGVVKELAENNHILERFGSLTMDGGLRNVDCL
The experiment in a line: TBK1 protein kinase assay ([γ-33P]ATP, P81 filterplates). As to conditions: 50 μM ATP; read-out: Potency (TBK1 IC50 potency score). The class given is biochemical. The procedure, abridged:
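Human TBK1 assayed for 30 min with peptide substrate (300 μM), 50 μM [γ-33P]ATP and 10 mM magnesium acetate in 50 mM Tris/HCl pH 7.5, 0.1 mM EGTA, 0.1% 2-mercaptoethanol. Stopped with orthophosphoric acid and counted on P81 filters. IC50 from 10 compound concentrations.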

For `O=C(NCCCNc1nc(Nc2ccc3c(cnn3CC3CC3)c2)ncc1C1CC1)C1CCC1` [Example 212, Cyclobutanecarboxylicacid{3-[5-cyclopropyl-2-(1-cyclopropylmethyl-1H-indazol-5-ylamino)-pyrimidin-4-ylamino]-propyl}-amide], the IC50 (as a rule, the point on the concentration scale where inhibition reaches its midpoint) is less than 100 nM. Consider `CC(=O)Nc1ccc(Nc2ncc(C3CC3)c(NCCCNC(=O)c3cccs3)n2)cc1` [Example 28, Thiophene-2-carboxylic acid {3-[2-(4-acetylamino-phenylamino)-5-cyclopropyl-pyrimidin-4-ylamino]-propyl}-amide. Hydrochloride salt], for which the IC50 was less than 100 nM. For the compound `Cn1ccnc1C(=O)NCCCNc1nc(Nc2cccc(F)c2)ncc1C1CC1` [Example 18, 1-Methyl-1H-imidazole-2-carboxylic acid {3-[5-cyclopropyl-2-(3-fluoro-phenylamino)-pyrimidin-4-ylamino]-propyl}-amide], the IC50 lay in the range of 1000 to 10000 nM. Then `CN1CCN(C(=O)Cc2cccc(Nc3ncc(C4CC4)c(NCCCNC(=O)C4CCC4)n3)c2)CC1` [Example 127, Cyclobutanecarboxylic acid [3-(5-cyclopropyl-2-{3-[2-(4-methyl-piperazin-1-yl)-2-oxo-ethyl]-phenylamino}-pyrimidin-4-ylamino)-propyl]-amide], with less than 100 nM; and `O=C(NCCCNc1nc(Nc2ccncc2)ncc1C1CC1)c1cccs1` [Example 63, Thiophene-2-carboxylic acid {3-[5-cyclopropyl-2-(pyridin-4-ylamino)-pyrimidin-4-ylamino]-propyl}-amide], with 100 to 1000 nM; and `O=C(NCCCNc1nc(Nc2cncnc2)ncc1C1CC1)C1CCC1` [Example 149, Cyclobutanecarboxylic acid {3-[5-cyclopropyl-2-(pyrimidin-5-ylamino)-pyrimidin-4-ylamino]-propyl}-amide], with 1000 to 10000 nM. `O=C(NCCCNc1nc(Nc2cccc(CN3CCC(F)(F)CC3)c2)ncc1C1CC1)C1CCC1` [Example 135, Cyclobutanecarboxylic acid (3-{5-cyclopropyl-2-[3-(4,4-difluoro-piperidin-1-ylmethyl)-phenylamino]-pyrimidin-4-ylamino}-propyl)-amide]: the IC50 was less than 100 nM.

As to `CN(CCN1CCOCC1)c1ccc(Nc2ncc(C3CC3)c(NCCCNC(=O)C3CCC3)n2)cn1` [Example 102, Cyclobutanecarboxylic acid [3-(5-cyclopropyl-2-{6-[methyl-(2-morpholin-4-yl-ethyl)-amino]-pyridin-3-ylamino}-pyrimidin-4-ylamino)-propyl]-amide], the IC50 is less than 100 nM.

As to `O=C(NCCCNc1nc(Nc2ccc(OCCN3CCOCC3)nc2)ncc1C1CC1)C1CCC1` [Example 154, Cyclobutanecarboxylic acid (3-{5-cyclopropyl-2-[6-(2-morpholin-4-yl-ethoxy)-pyridin-3-ylamino]-pyrimidin-4-ylamino}-propyl)-amide], the 50% inhibitory concentration (IC50) is less than 100 nM.

Take `O=C(NCCCNc1nc(Nc2ccc3cn(CC4CC4)nc3c2)ncc1C1CC1)C1CCC1` [Example 194, Cyclobutanecarboxylic acid {3-[5-cyclopropyl-2-(2-cyclopropylmethyl-2H-indazol-6-ylamino)-pyrimidin-4-ylamino]-propyl}-amide]: the IC50 was less than 100 nM. Then `O=C(NCCCNc1nc(Nc2ccc(CN3CCOCC3)nc2)ncc1C1CC1)C1CCC1` [Example 104, Cyclobutanecarboxylic acid {3-[5-cyclopropyl-2-(6-morpholin-4-ylmethyl-pyridin-3-ylamino)-pyrimidin-4-ylamino]-propyl}-amide], with less than 100 nM; and `CC(=O)Nc1cccc(Nc2ncc(C3CC3)c(NCCCNC(=O)c3cccs3)n2)c1` [Example 51, Thiophene-2-carboxylic acid {3-[2-(3-acetylamino-phenylamino)-5-cyclopropyl-pyrimidin-4-ylamino]-propyl}-amide], with less than 100 nM.
